Data: PMC9154793, “Design, synthesis, and biological evaluation of triazole-pyrimidine-methylbenzonitrile derivatives as dual A2A/A2B adenosine receptor antagonists” (Journal of Enzyme Inhibition and Medicinal Chemistry, 2022)
Entries after “also recorded” stand apart in the source; their conditions may differ.

Columns and labels:
[1] = molecular target: human A2A AR (Homo sapiens, UniProt P29274); assay: cAMP functional assay in CHO-K1/ADORA2A/Gα15 cells (NECA-stimulated, HTRF); assay type: cell-based; details: for IC50: CHO cells expressing hA2A AR, read-out: cAMP IC50 hA2A AR; for IC50 / inhibition at 0.01 µM / inhibition at 0.1 µM / inhibition at 1 µM: mean ± SEM; for inhibition at 0.01 µM / inhibition at 0.1 µM / inhibition at 1 µM: CHO-K1, relative to ZM241385 at 1 μM; for inhibition at 0.01 µM: compound at 10 nM, read-out: hA2A AR (%) inhibition of cAMP, 10 nM; for inhibition at 0.1 µM: compound at 100 nM, read-out: hA2A AR (%) inhibition of cAMP, 100 nM; for inhibition at 1 µM: compound at 1000 nM, read-out: hA2A AR (%) inhibition of cAMP, 1000 nM;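 as to all read-outs here: inhibition of NECA-driven intracellular cAMP build-up in the A2A-expressing cells, quantified with cAMP-d2 plus Eu3+-labelled anti-cAMP detection reagent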
Chain of human A2A AR (P29274 whole entry): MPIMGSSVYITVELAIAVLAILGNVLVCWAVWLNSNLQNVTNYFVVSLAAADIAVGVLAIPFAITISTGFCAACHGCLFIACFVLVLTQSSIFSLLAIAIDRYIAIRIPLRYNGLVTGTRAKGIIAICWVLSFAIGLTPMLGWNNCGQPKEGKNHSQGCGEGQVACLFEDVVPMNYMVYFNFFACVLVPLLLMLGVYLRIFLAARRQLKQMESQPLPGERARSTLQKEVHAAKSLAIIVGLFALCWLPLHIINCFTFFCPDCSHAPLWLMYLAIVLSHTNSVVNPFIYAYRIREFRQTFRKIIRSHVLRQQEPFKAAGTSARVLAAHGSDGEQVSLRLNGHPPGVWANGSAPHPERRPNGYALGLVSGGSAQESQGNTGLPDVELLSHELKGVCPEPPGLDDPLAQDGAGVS
Description: In the cAMP assay, CHO-K1/ADORA2A/Gα15 cells expressing human A2A AR and CHO-K1/ADORA2b/Gα15 cells expressing human A2B AR were activated by 5′-(N-ethylcarboxamido)adenosine (NECA) and triggered the accumulation of intracellular cAMP concentration.
CHO-K1/ADORA2A/Gα15 cells expressing human A2A AR and CHO-K1/ADORA2b/Gα15 cells expressing human A2B AR were both constructed by Genscript Biotech Corporation. […] The test stock solutions were diluted with different gradients for use. The procedure was exemplified by the cAMP functional assay on the A2A receptor: 10,000 cells/well of CHO-K1/ADORA2A/Gα15 were seeded in a 384-well plate in 20 μl of assay buffer. […] Then, 10 μl of detection reagent (cAMP-d2 and anti-cAMP-Eu3+) was added into each well of the plate and incubated at room temperature for 1 h.

[2] = system: PBMCs; assay: T-cell activation assay (IL-2 production in PBMCs, NECA-suppressed, anti-CD3/anti-CD28); assay type: cell-based; details: 10, 100, 1000 nM antagonist with 1000 nM NECA; ELISA after 48 h; Figure 3
Description: The effector functions of T cells that express A2 ARs can be evaluated by measuring specific cytokine production[4]^,[9]^,[38]. In this study, the efficiencies of selected antagonists on IL-2 production (T cell activation) were examined. […] However, when the antagonist was added, the concentration of IL-2 was restored, indicating the inhibition effect of NECA was blocked.
Figure 3. The efficiencies of selected compounds for IL-2 production. The efficiencies of selected antagonists on T-cell activation at 10 nM, 100 nM, and 1000 nM were tested in the presence or absence of 1000 nM NECA. The DMSO control was tested in the absence of both antagonists and NECA. The NECA control was tested without antagonists in the presence of 1000 nM NECA.
Cryopreserved PBMCs (Allcells) were thawed and recovered in RPMI1640 medium overnight before being used. And compounds to be tested were diluted with DMSO to 100 folds of working concentrations. Then PBMCs were added to 96-well U bottom plate (2.5 × 10^5 cells per well). To the cells, 2 μl of NECA and 2 μl of each diluted compound (a final concentration of DMSO is 2%) were added. Then, cells were incubated at 37 °C under 5% CO2 for 1 h. Add 100 μl anti-CD3 (2 μg/ml) and anti-CD28 antibody (2 μg/ml) to each well and cells were cultured for 48 h. After 48 h, supernatants were collected and IL-2 concentration was detected by ELISA.

[3] = Metabolic stability in human liver microsomes; assay type: in vitro ADME
Description: (§1) The metabolic stability is an important focus for further compound optimisation. Compounds 7f, 7i, and AB928 were chosen to evaluate the stability in rat liver microsomes and human liver microsomes. For the microsomal metabolic experiment, 7-ethoxycoumarin (7-EC) was used as a control. As shown in Table 4 (see Supporting information for raw data), the CLint(liver) of 7-EC in rats and humans was 10.0 and 9.0 ml/min/g liver, respectively, indicating the experimental test system was reliable.
(§2) Metabolic stabilities of compounds 7f, 7i, and AB928 in liver microsomes were studied with pooled human (male) liver microsomes solution (20 mg/ml) and male Sprague–Dawley rats pooled liver microsomes solution (20 mg/ml) purchased from Research Institute for Liver Diseases (Shanghai) Co. Ltd. Both liver microsomes solutions (140 μl) were diluted by 3948 μl of water and 280 μl of phosphate buffered saline. The assay procedure: 640 μl of diluted liver microsomes solution was added to a solution of compound working solution (16 μl, 25 μM in DMSO) and the mixed solution was incubated at 37 °C for 5 min. Then 160 μl of NADPH generating system was added and take out 100 μl from the mixed solution was added 200 μl of acetonitrile solution to stop the reaction at the set incubation time (0 min, 10 min, 20 min, 30 min, 40 min, 50 min, and 60 min). All stopped reaction solutions were vortex mixed (3 min) and centrifuged (10,000 rpm, 4 °C for 10 min). Then 50 μl of the supernatant was analysed by UPLC-MS/MS system (details of the analytical method see Supporting information). […]
(§3) 8. Metabolic stability in human and rat liver microsomes
(§4) Metabolic stabilities of compounds 7f, 7i and AB928 in liver microsomes were studied with pooled human (male) liver microsomes solution (20 mg/mL) and male Sprague - Dawley rats pooled liver microsomes solution (20 mg/mL) purchased from Research Institute for Liver Diseases (Shanghai) Co. Ltd. Both liver microsomes solutions (140 μL) were diluted by 3948 μL of water and 280 μL of phosphate buffered saline. The assay procedure: 640 μL of diluted liver microsomes solution was added to a solution of compound working solution (16 μL, 25 μM in DMSO) and the mixed solution was […]
(§5) (1 picture or pasted object on this page, not shown here) […]
(§6) incubated at 37 ℃ for 5 min. Then 160 μL of NADPH generating system was added and take out 100 μL from the mixed solution was added 200 μL of acetonitrile solution to stop the reaction at the set incubation time (0 min, 10 min, 20 min, 30 min, 40 min, 50 min, and 60 min). All stopped reaction solutions were vortex mixed (3 min) and centrifuged (10000 rpm, 4 ℃ for 10 min). Then 50 μL of the supernatant was analyzed […]
(§7) 8.2 Chromatography and mass spectrometry conditions
(§8) UPLC was performed using an […] UPLC system (Waters, Milford, MA, […]
(§9) USA). Separation was achieved on a Waters BEH C18 column(100 mm × 2.1 mm， 1.7 μm) at 40 ℃. The injection volume of the sample solution was 5 μL. The mobile phase consisted of water (0.1% formic acid and ammonium acetate) and acetonitrile solution (20:80, v/v) at a flow rate of 0.4 mL/min within a running time of 6 min. Mass spectrometric analysis was performed on a Waters Xevo TQ-S triple quadrupole instrument using electrospray ionization in positive mode. Quantification was performed using multiple reaction monitoring (MRM) mode to monitor precursor-product ion transitions (Table S1).
(§10) Table S1. Conditions of MRM Detection. […]
(§11) Table S2. Raw data of metabolic stability in human and rat liver microsomes. […]
(§12) (min) Hum Rat Hum Rat Hum Rat Hum Rat
(§13) 9. Analytical method of pharmacokinetics assay
(§14) Animal experiments were performed according to the institutional ethical guidelines on animal care and approved by the Institute Animal Care and Use Committee at Binzhou […]
(§15) Female Bal b/c mice (sourced from Jinan Pengyue Experimental Animal Breeding […]

[4] = Metabolic stability in rat liver microsomes; assay type: in vitro ADME, Sprague–Dawley rats; details: for remaining at 10 min, 0.49 µM / remaining at 20 min, 0.49 µM / remaining at 0.5 h, 0.49 µM / remaining at 40 min, 0.49 µM / remaining at 50 min, 0.49 µM / remaining at 1 h, 0.49 µM / half-life at 0.49 µM: male, Sprague-Dawley, pooled rat liver microsomes; for remaining at 10 min, 0.49 µM / remaining at 20 min, 0.49 µM / remaining at 0.5 h, 0.49 µM / remaining at 40 min, 0.49 µM / remaining at 50 min, 0.49 µM / remaining at 1 h, 0.49 µM / CLint(liver) Rat: rat liver microsomes; for remaining at 0.5 h, 0.49 µM: 30 min; for remaining at 1 h, 0.49 µM: 60 min, read-out: Remaining (%, T = 60min) Rat; for half-life at 0.49 µM: rat, read-out: T1/2 Rat
Description: as §1, §2, §3, §4, §5, §6, §7, §8, §9, §10, §11, §12, §13, §14, §15

Row | IC50 [1] [nM] | inhibition at 0.01 µM [1] [%] | inhibition at 0.1 µM [1] [%] | inhibition at 1 µM [1] [%] | remaining at 10 min, 0.49 µM ([3]; male, human, microsomes) [%] | remaining at 20 min, 0.49 µM ([3]; male, human, microsomes) [%] | remaining at 0.5 h, 0.49 µM ([3]; male, human, microsomes) [%] | remaining at 40 min, 0.49 µM ([3]; male, human, microsomes) [%] | remaining at 50 min, 0.49 µM ([3]; male, human, microsomes) [%] | remaining at 1 h, 0.49 µM ([3]; male, human, microsomes) [%] | remaining at 10 min, 0.49 µM [4] [%] | remaining at 20 min, 0.49 µM [4] [%] | remaining at 0.5 h, 0.49 µM [4] [%] | remaining at 40 min, 0.49 µM [4] [%] | remaining at 50 min, 0.49 µM [4] [%] | remaining at 1 h, 0.49 µM [4] [%] | half-life at 0.49 µM [4] [h] | CLint(liver) Rat [4] [mL/min/g] | Compound | IL-2 production (T cell activation) [2] | metabolism on human liver microsomes (in words) [3] | also measured
1 | 24.04 ± 0.06 | 54.9 ± 1.19 | 84.2 ± 2.94 | 92.41 ± 0.43 | 96.3 | 96.5 | 107 | 98.4 | 102 | 105 | 84.7 | 88 | 77.2 | 73.7 | 64.2 | 64 | 1.56 | 0.78 | Cc1c(C#N)cccc1-c1cc(-c2cn(Cc3cccc(C#N)n3)nn2)nc(N)n1 [Compound 7f, 6-((4-(2-Amino-6-(3-cyano-2-methylphenyl)pyrimidin-4-yl)-1H-1,2,3-triazol-1-yl)methyl)picolinonitrile] | sufficient activities to stimulate IL-2 production | hardly metabolised on human liver microsomes | fold less active than compound 7i (cAMP IC50, A2A receptor) ([1]; ratio of cAMP IC50 values vs 7i): 4 fold
2 | 6.007 ± 0.05 | 32.7 ± 1.8 | 95.9 ± 3.36 | 103 ± 2.82 | 98 | 108 | 116 | 101 | 95 | 98.8 | 74.9 | 72.8 | 67.8 | 61 | 53.8 | 50.7 | 1.12 | 1.08 | Cc1c(C#N)cccc1-c1cc(-c2cn(Cc3cccc(C(N)=O)n3)nn2)nc(N)n1 [Compound 7i, 6-((4-(2-Amino-6-(3-cyano-2-methylphenyl)pyrimidin-4-yl)-1H-1,2,3-triazol-1-yl)methyl)picolinamide] | sufficient activities to stimulate IL-2 production; also recorded: better activity than AB928 | hardly metabolised on human liver microsomes | CLint(liver) Hum ([3]; human, microsomes): 0.06 mL/min/g; half-life at 0.49 µM ([3]; male, human, microsomes): 19.2 h
